Measurements taken from ChEMBL document CHEMBL1201862, “PubChem BioAssay data set” (2004).
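Where inhibition never reached the appropriate level, the endpoint shown equals the highest concentration tested. Otherwise, values were interpolated linearly from a five-concentration, 48-hour dose response in 96-well plates. GI50 is the concentration that inhibits growth by half.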 Activity calls are given as the source filed them. Rule as the data show it: active = GI50 up to about 1.1 µM and inactive = higher.

Legend:
Assay in all cases: NCI tumour cell line growth inhibition, 48 h
786-0 = test system: 786-0
ACHN = test system: ACHN
BT-549 = test system: BT-549
DU-145 = test system: DU-145
HCT-15 = test system: HCT-15
HOP-92 = test system: HOP-92
K562 = test system: K562
NCI-H226 = test system: NCI-H226
NCI-H460 = test system: NCI-H460
OVCAR-5 = test system: OVCAR-5
SK-MEL-28 = test system: SK-MEL-28
SK-MEL-2 = test system: SK-MEL-2
SNB-19 = test system: SNB-19
SNB-75 = test system: SNB-75
A549 = test system: A549
MCF7 = test system: MCF7
RXF 393 = test system: RXF 393
SF-539 = test system: SF-539
SN12C = test system: SN12C

| SMILES | GI50 (786-0) | GI50 (ACHN) | GI50 (BT-549) | GI50 (DU-145) | GI50 (HCT-15) | GI50 (HOP-92) | GI50 (K562) | GI50 (NCI-H226) | GI50 (NCI-H460) | GI50 (OVCAR-5) | GI50 (SK-MEL-28) | GI50 (SK-MEL-2) | GI50 (SNB-19) | GI50 (SNB-75) | GI50 (A549) | GI50 (MCF7) | GI50 (RXF 393) | GI50 (SF-539) | GI50 (SN12C) |
| --- | --- | --- | --- | --- | --- | --- | --- | --- | --- | --- | --- | --- | --- | --- | --- | --- | --- | --- | --- |
| C1=C(c2ccccc2)NC2=N[C@H]3CCCC[C@@H]3N2C1c1ccccc1 (stereo not given in full) | 16.9 µM (inactive) | 13.7 µM (inactive) | 11.4 µM (inactive) | 16.1 µM (inactive) | 11.4 µM | 12.7 µM (inactive) | 5.15 µM (inactive) | 13.4 µM (inactive) | 11 µM (inactive) | 13.5 µM (inactive) | 14.3 µM (inactive) | 17.8 µM (inactive) | 14.6 µM (inactive) | 11.3 µM (inactive) | – | – | – | – | – |
| Cn1c(=O)c2nc(CS(=O)(=O)Cc3nc4c(=O)n(C)c(=O)n(C)c4[nH]3)[nH]c2n(C)c1=O | > 100 µM (inactive) | > 100 µM (inactive) | > 100 µM (inactive) | > 100 µM (inactive) | > 100 µM | – | > 100 µM (inactive) | > 100 µM (inactive) | > 100 µM (inactive) | > 100 µM (inactive) | > 100 µM (inactive) | > 100 µM (inactive) | > 100 µM (inactive) | > 100 µM (inactive) | > 100 µM (inactive) | 28.1 µM (inactive) | > 100 µM (inactive) | > 100 µM (inactive) | > 100 µM (inactive) |
| CC12CCC(CC1(Cl)Cl)C2 (stereo not given) | > 100 µM (inactive) | > 100 µM (inactive) | > 100 µM (inactive) | – | > 100 µM | > 100 µM (inactive) | > 100 µM (inactive) | > 100 µM (inactive) | > 100 µM (inactive) | > 100 µM (inactive) | > 100 µM (inactive) | > 100 µM (inactive) | > 100 µM (inactive) | > 100 µM (inactive) | > 100 µM (inactive) | > 100 µM (inactive) | – | – | > 100 µM (inactive) |
| Cc1cc(=O)c2cc(/N=C/c3ccc([N+](=O)[O-])o3)ccc2o1 | 64.4 µM (inactive) | 91.6 µM (inactive) | 72.6 µM (inactive) | > 100 µM (inactive) | 88.3 µM | > 100 µM (inactive) | 33.7 µM (inactive) | > 100 µM (inactive) | > 100 µM (inactive) | > 100 µM (inactive) | > 100 µM (inactive) | > 100 µM (inactive) | > 100 µM (inactive) | > 100 µM (inactive) | > 100 µM (inactive) | 24.3 µM (inactive) | – | > 100 µM (inactive) | > 100 µM (inactive) |
| O=C(O)c1ccccc1/C=N\N=C1NCCN1 | > 100 µM (inactive) | > 100 µM (inactive) | 49.9 µM (inactive) | > 100 µM (inactive) | > 100 µM | > 100 µM (inactive) | > 100 µM (inactive) | 21.6 µM (inactive) | > 100 µM (inactive) | > 100 µM (inactive) | – | > 100 µM (inactive) | > 100 µM (inactive) | > 100 µM (inactive) | > 100 µM (inactive) | > 100 µM (inactive) | – | > 100 µM (inactive) | > 100 µM (inactive) |
| Cc1ccc2c(c1)C(=O)c1[nH]c3ccc(F)cc3c1CO2 | 12.1 µM (inactive) | 28.6 µM (inactive) | 31.1 µM (inactive) | > 100 µM (inactive) | > 100 µM | 81.8 µM (inactive) | 29 µM (inactive) | 31.8 µM (inactive) | 33.9 µM (inactive) | > 100 µM (inactive) | 97.1 µM (inactive) | 12.1 µM (inactive) | 14.3 µM (inactive) | 10.3 µM (inactive) | 62.2 µM (inactive) | > 100 µM (inactive) | – | 13.9 µM (inactive) | > 100 µM (inactive) |
| CC(C)[C@@H](C)[C@@]1(C)C[C@@H]1[C@@H](C)[C@H]1CC[C@@H]([C@@H]2CC=C3C[C@@H](O)CC[C@]3(C)C2=O)[C@]1(C)CCO | 5.53 µM (inactive) | 12.5 µM (inactive) | 16.6 µM (inactive) | 15.3 µM (inactive) | 5.27 µM | – | 3.49 µM (inactive) | 12.5 µM (inactive) | 1.77 µM (inactive) | 11.6 µM (inactive) | 7.53 µM (inactive) | 18.3 µM (inactive) | 12.6 µM (inactive) | 5.66 µM (inactive) | – | 10.9 µM (inactive) | 3.3 µM (inactive) | 12.6 µM (inactive) | 12.9 µM (inactive) |
| CCCC(=O)Nc1cc([N+](=O)[O-])c([N+](=O)[O-])cc1OC | 26.3 µM (inactive) | 13.5 µM (inactive) | 17.3 µM (inactive) | 17.8 µM (inactive) | 8.87 µM | – | 17.5 µM (inactive) | 23.1 µM (inactive) | 13.3 µM (inactive) | 32.5 µM (inactive) | 17 µM (inactive) | 16.5 µM (inactive) | 17 µM (inactive) | 16.7 µM (inactive) | 13.7 µM (inactive) | 29.5 µM (inactive) | – | 20 µM (inactive) | 15.6 µM (inactive) |
| Cc1cc2c(cc1Cl)SC(NNC(=O)c1ccncc1)=NS2(=O)=O | > 10 µM (inactive) | > 10 µM (inactive) | > 10 µM (inactive) | > 10 µM (inactive) | > 10 µM | – | > 10 µM (inactive) | > 10 µM (inactive) | > 10 µM (inactive) | > 10 µM (inactive) | > 10 µM (inactive) | > 10 µM (inactive) | > 10 µM (inactive) | > 10 µM (inactive) | > 10 µM (inactive) | – | > 10 µM (inactive) | > 10 µM (inactive) | > 10 µM (inactive) |
| CCCCCCNc1n[nH]c(=O)c2c1nnn2Cc1ccccc1 | > 100 µM (inactive) | > 100 µM (inactive) | > 100 µM (inactive) | > 100 µM (inactive) | > 100 µM | 86.9 µM (inactive) | > 100 µM (inactive) | – | > 100 µM (inactive) | > 100 µM (inactive) | > 100 µM (inactive) | > 100 µM (inactive) | > 100 µM (inactive) | – | > 100 µM (inactive) | > 100 µM (inactive) | – | – | > 100 µM (inactive) |
| N#CC(C#N)=c1c(=O)c2c3ccccc3cc3cccc1c32 | 35.2 µM (inactive) | 37.1 µM (inactive) | > 100 µM (inactive) | > 100 µM (inactive) | > 100 µM | > 100 µM (inactive) | – | > 100 µM (inactive) | > 100 µM (inactive) | > 100 µM (inactive) | 89.9 µM (inactive) | 92.3 µM (inactive) | > 100 µM (inactive) | > 100 µM (inactive) | > 100 µM (inactive) | – | – | – | > 100 µM (inactive) |
| O=C(NCCCN(CCCCN(CCCNC(=O)c1cc(S(=O)(=O)O)cc(O)c1O)C(=O)c1cc(S(=O)(=O)O)cc(O)c1O)C(=O)c1cc(S(=O)(=O)O)cc(O)c1O)c1cc(S(=O)(=O)O)cc(O)c1O | > 100 µM (inactive) | > 100 µM (inactive) | > 100 µM (inactive) | > 100 µM (inactive) | > 100 µM | > 100 µM (inactive) | > 100 µM (inactive) | > 100 µM (inactive) | > 100 µM (inactive) | – | > 100 µM (inactive) | > 100 µM (inactive) | > 100 µM (inactive) | > 100 µM (inactive) | > 100 µM (inactive) | – | – | – | > 100 µM (inactive) |
| CN(CCCNC(=O)c1cn(C)c2c1ccc1cc(Cl)ccc12)CCCNC(=O)c1cn(C)c2c1ccc1cc(Cl)ccc12 | 1.65 µM (inactive) | 1.71 µM (inactive) | 8.99 µM (inactive) | 1.89 µM (inactive) | 1.78 µM | 3.6 µM (inactive) | 1.97 µM (inactive) | 20.6 µM (inactive) | 1.56 µM (inactive) | 3.09 µM (inactive) | 1.73 µM (inactive) | 1.69 µM (inactive) | 2.39 µM (inactive) | 1.57 µM (inactive) | 2.06 µM (inactive) | – | 1.3 µM (inactive) | 1.99 µM (inactive) | 1.87 µM (inactive) |
| CCCCC(=O)Nc1ccc2c(C)cc(-c3ccc(-c4cc(-c5ccc(C)cc5)cc(-c5ccc(-c6cc(C)c7ccc(NC(=O)CCCC)nc7n6)cc5)n4)cc3)nc2n1 | > 100 µM (inactive) | > 100 µM (inactive) | > 100 µM (inactive) | > 100 µM (inactive) | > 100 µM | 78.9 µM (inactive) | > 100 µM (inactive) | – | > 100 µM (inactive) | > 100 µM (inactive) | > 100 µM (inactive) | > 100 µM (inactive) | > 100 µM (inactive) | > 100 µM (inactive) | > 100 µM (inactive) | > 100 µM (inactive) | – | – | > 100 µM (inactive) |
| COC(=O)[C@@]12C(=O)C(C)C(=O)[C@]1(C)C(C)=C[C@H]1[C@]3(C=O)CC[C@H](OC(C)=O)C(C)(C)[C@H]3CC[C@@]12C (stereo not given in full) | > 100 µM (inactive) | > 100 µM (inactive) | > 100 µM (inactive) | > 100 µM (inactive) | > 100 µM | > 100 µM (inactive) | 38.6 µM (inactive) | > 100 µM (inactive) | > 100 µM (inactive) | > 100 µM (inactive) | > 100 µM (inactive) | > 100 µM (inactive) | > 100 µM (inactive) | > 100 µM (inactive) | > 100 µM (inactive) | – | > 100 µM (inactive) | > 100 µM (inactive) | – |
| CNC(=O)c1cc2nc3ccccc3c(=O)n2c2ccccc12 | > 10 µM (inactive) | > 10 µM (inactive) | > 10 µM (inactive) | > 10 µM (inactive) | > 10 µM | > 10 µM (inactive) | > 10 µM (inactive) | > 10 µM (inactive) | – | > 10 µM (inactive) | > 10 µM (inactive) | > 10 µM (inactive) | > 10 µM (inactive) | – | > 10 µM (inactive) | > 10 µM (inactive) | > 10 µM (inactive) | > 10 µM (inactive) | > 10 µM (inactive) |
